# Key:
# Experiment in all cases: IA-DTB cysteine engagement, GluC + trypsin digest
# Assay type in all cases: binding
# Conditions in all cases: 22Rv1 cells
# PSME1 101 = target: T1, PSME1 101 (Homo sapiens, UniProt Q06323)
# T1 construct: stereoselectively engaged C22 of endogenous PSME1 in 22Rv1 cells; endogenous in cells; host or cells: 22Rv1
# Experimental: (§1) Sample preparation: Cells (adherent: 15 cm dishes, suspension: 2 million cells/mL) were treated with electrophilic probes in situ for indicated times and concentrations, washed with ice-cold PBS, and flash frozen in liquid nitrogen. Cell pellets were lysed by sonication (8 pulses, 40% power) in 500 μL ice-cold PBS supplemented with cOmplete protease inhibitors (1 tablet/10 mL of PBS). Whole cell lysates protein content was measured using a standard DC protein assay (Bio-Rad) and 500 μL (2 mg/mL protein content) were treated with 5 μL of 10 mM 1A-DTB (in DMSO) for 1 h at ambient temperature with occasional vortexing. Samples were methanol-chloroform precipitated with the addition of 500 μL ice-cold MeOH and 200 μL CHCl3, vortexed, and centrifuged (10 min, 10,000 g). Without disrupting the protein disk, both top and bottom layers were aspirated and the protein disk was washed with 1 mL ice-cold MeOH and centrifuged (10 min, 10,000 g). The pellets were allowed to air dry, and then re-suspended in 90 μL buffer (9 M urea, 10 mM DTT, 50 mM TEAB pH 8.5). Samples were reduced by heating at 65 C for 20 minutes and water bath sonicated as needed to resuspend the protein pellets, followed by alkylation via addition of 10 μL (500 mM) iodoacetamide and incubated at 37 C for 30 min with shaking. Samples were briefly centrifuged, and probe sonicated once more to ensure complete resuspension, and then diluted with 300 μL buffer (50 mM TEAB pH 8.5) to reach final concentration of 2 M urea. […] Digested samples were then diluted with 300 μL wash buffer (50 mM TEAB pH 8.5, 150 mM NaCl, 0.2% NP-40) containing streptavidin-agarose beads (50 μL of 50% slurry in wash buffer) and were rotated at room temperature for 2 hours. Enriched samples were pelleted by centrifugation (2000 g, 2 min) and transferred to BioSpin columns and washed (3×1 mL wash buffer, 3×1 mL PBS, 3×1 mL water). Enriched peptides were eluted by 300 μL 50% acetonitrile with 0.1% formic acid and eluate was evaporated to dryness via speedvac. IA-DTB labeled and enriched peptides were resuspended in 100 μL EPPS buffer (200 mM, pH 8.0) with 30% acetonitrile, vortexed, and water bath sonicated. Samples were TMT labeled with 3 μL of corresponding TMT tag (5 mg tag resuspended in 256 μL acetonitrile), vortexed, and incubated at room temperature for 1 hour. TMT labeling was quenched with the addition of hydroxylamine (5 μL 5% solution in H2O) and incubated for 15 minutes at room temperature. Samples were then acidified with 5 μL formic acid, combined and dried using a SpeedVac. Samples were desalted via Sep-Pak and then high pH fractionated.
# (§2) Data processing: Cysteine engagement ratios (probe vs DMSO) were calculated for each peptide-spectra match by dividing each TMT reporter ion intensity by the average intensity for the channels corresponding to DMSO treatment. Peptide-spectra matches were then grouped based on protein ID and residue number (e.g., PSME1 C22), […] ion intensities for the DMSO channels <10,000, coefficient of variation for DMSO channels >0.5, […] TMT reporter ion intensities were normalized to the median summed signal intensity across channels.
# (§3) Samples were analyzed by liquid chromatography tandem mass-spectrometry using an Orbitrap Fusion mass spectrometer (Thermo Scientific) coupled to an UltiMate 3000 Series Rapid Separation LC system and autosampler (Thermo Scientific Dionex). The peptides were eluted onto a capillary column (75 μm inner diameter fused silica, packed with C18 (Waters, Acquity BEH C18, 1.7 μm, 25 cm)) or an EASY-Spray HPLC column (Thermo ES902, ES903) using an Acclaim PepMap 100 (Thermo 164535) loading column, and separated at a flow rate of 0.25 μL/min. Data was acquired using an MS3-based TMT method on Orbitrap Fusion or Orbitrap Eclipse Tribrid Mass Spectrometers. […]
# SF3B1 965 = target: T2, SF3B1 965 (Homo sapiens, UniProt O75533+Q7RTV0)
# T2 construct: Cysteine engagement data from 22Rv1 cells treated; endogenous in cells; host or cells: 22Rv1
# T2 sequence (O75533 whole entry): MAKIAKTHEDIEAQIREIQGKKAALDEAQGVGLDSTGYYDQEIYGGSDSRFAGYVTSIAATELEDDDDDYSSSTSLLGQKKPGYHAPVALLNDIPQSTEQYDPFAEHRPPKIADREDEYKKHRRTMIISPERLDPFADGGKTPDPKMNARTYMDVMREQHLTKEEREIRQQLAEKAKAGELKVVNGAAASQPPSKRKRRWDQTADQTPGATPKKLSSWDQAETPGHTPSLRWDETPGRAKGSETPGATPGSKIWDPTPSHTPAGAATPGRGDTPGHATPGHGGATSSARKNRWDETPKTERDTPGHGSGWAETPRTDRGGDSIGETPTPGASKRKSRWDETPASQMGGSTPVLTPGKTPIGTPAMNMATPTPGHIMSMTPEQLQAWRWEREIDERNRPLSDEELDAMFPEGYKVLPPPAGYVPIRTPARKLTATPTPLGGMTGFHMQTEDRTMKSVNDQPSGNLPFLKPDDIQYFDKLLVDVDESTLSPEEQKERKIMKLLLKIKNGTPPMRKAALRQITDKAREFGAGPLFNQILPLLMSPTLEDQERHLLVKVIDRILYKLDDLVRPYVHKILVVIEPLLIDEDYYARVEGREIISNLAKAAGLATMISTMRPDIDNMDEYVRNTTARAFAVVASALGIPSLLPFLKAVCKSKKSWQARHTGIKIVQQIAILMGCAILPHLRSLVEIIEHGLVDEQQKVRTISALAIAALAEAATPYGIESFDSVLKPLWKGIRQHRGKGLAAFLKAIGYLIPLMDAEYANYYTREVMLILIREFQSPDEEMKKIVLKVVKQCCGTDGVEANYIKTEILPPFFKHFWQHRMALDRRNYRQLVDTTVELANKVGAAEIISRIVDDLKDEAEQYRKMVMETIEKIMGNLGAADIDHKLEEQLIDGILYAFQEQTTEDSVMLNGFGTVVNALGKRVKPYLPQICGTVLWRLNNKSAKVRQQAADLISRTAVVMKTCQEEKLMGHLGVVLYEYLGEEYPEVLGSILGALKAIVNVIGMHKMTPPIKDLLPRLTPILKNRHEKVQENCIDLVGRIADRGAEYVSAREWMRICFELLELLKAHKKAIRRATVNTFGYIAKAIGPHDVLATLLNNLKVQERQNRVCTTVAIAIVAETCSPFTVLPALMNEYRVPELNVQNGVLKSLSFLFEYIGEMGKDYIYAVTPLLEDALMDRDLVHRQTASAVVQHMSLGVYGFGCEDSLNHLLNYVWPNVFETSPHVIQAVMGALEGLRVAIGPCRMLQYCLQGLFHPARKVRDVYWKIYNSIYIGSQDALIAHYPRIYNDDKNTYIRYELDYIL
# T2 sequence (Q7RTV0 whole entry): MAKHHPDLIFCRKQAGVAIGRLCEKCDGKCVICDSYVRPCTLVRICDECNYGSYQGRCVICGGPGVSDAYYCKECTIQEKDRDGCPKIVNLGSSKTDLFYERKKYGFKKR
# T2 sequence (Q15393 whole entry partner): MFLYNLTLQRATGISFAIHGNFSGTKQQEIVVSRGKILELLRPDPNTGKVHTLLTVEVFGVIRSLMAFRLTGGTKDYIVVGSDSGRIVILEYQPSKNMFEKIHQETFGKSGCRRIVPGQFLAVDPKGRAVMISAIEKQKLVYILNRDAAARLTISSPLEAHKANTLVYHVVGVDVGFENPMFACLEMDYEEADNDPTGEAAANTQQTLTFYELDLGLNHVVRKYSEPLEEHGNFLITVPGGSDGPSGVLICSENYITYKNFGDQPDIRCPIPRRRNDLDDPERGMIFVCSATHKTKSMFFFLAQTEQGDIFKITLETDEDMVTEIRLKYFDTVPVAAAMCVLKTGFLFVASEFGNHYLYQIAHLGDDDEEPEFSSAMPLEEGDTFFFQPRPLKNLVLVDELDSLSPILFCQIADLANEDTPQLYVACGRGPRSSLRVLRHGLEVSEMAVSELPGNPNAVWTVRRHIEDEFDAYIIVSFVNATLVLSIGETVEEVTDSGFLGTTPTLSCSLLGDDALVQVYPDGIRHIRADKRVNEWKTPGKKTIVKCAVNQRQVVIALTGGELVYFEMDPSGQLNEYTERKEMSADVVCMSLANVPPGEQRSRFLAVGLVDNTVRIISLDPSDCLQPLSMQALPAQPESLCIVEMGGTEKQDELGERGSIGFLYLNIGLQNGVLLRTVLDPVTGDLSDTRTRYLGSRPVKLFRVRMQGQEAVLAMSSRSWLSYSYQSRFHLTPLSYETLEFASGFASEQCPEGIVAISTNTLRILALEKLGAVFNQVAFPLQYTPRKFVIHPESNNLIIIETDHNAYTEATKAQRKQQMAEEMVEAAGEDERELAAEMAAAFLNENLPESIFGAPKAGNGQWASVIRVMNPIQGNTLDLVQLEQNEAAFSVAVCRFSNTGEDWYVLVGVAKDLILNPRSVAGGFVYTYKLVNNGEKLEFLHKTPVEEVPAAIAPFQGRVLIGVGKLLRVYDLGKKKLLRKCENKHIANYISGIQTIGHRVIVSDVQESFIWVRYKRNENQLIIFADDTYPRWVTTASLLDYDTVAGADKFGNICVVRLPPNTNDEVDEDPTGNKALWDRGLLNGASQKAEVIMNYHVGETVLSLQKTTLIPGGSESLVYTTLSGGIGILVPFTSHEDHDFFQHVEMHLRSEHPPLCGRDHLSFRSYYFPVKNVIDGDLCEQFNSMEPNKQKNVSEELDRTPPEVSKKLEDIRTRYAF
# T2 sequence (Q9BWJ5 whole entry partner): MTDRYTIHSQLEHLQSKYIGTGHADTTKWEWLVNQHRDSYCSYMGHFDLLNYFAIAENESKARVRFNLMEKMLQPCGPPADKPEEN
# Experimental: as §1, §2, §3
# SF3B1 933 = target: T3, SF3B1 933 (Homo sapiens, UniProt O75533+Q7RTV0)
# T3 construct: Cysteine engagement data from 22Rv1 cells treated; endogenous in cells; host or cells: 22Rv1
# T3 sequence (O75533 whole entry): as the sequence (O75533 whole entry) above
# T3 sequence (Q7RTV0 whole entry): as the sequence (Q7RTV0 whole entry) above
# T3 sequence (Q15393 whole entry partner): as the sequence (Q15393 whole entry partner) above
# T3 sequence (Q9BWJ5 whole entry partner): as the sequence (Q9BWJ5 whole entry partner) above
# Experimental: as §1, §2, §3
# SF3B1 796 = target: T4, SF3B1 796 (Homo sapiens, UniProt O75533)
# T4 construct: endogenous in cells; host or cells: 22Rv1
# T4 sequence (O75533 whole entry): as the sequence (O75533 whole entry) above
# Experimental: as §1, §2, §3
# SF3B1 795 = target: T5, SF3B1 795 (Homo sapiens, UniProt O75533)
# T5 construct: endogenous in cells; host or cells: 22Rv1
# T5 sequence (O75533 whole entry): as above
# Experimental: as §1, §2, §3
# SF3B1 1244 = target: T6, SF3B1 1244 (Homo sapiens, UniProt O75533+Q7RTV0)
# T6 construct: Cysteine engagement data from 22Rv1 cells treated; endogenous in cells; host or cells: 22Rv1
# T6 sequence (O75533 whole entry): as above
# T6 sequence (Q7RTV0 whole entry): as the sequence (Q7RTV0 whole entry) above
# T6 sequence (Q15393 whole entry partner): as the sequence (Q15393 whole entry partner) above
# T6 sequence (Q9BWJ5 whole entry partner): as the sequence (Q9BWJ5 whole entry partner) above
# Experimental: as §1, §2, §3
# PSME1 106 = target: T7, PSME1 106 (Homo sapiens, UniProt Q06323)
# T7 construct: stereoselectively engaged C22 of endogenous PSME1 in 22Rv1 cells; endogenous in cells; host or cells: 22Rv1
# T7 sequence (Q06323 whole entry): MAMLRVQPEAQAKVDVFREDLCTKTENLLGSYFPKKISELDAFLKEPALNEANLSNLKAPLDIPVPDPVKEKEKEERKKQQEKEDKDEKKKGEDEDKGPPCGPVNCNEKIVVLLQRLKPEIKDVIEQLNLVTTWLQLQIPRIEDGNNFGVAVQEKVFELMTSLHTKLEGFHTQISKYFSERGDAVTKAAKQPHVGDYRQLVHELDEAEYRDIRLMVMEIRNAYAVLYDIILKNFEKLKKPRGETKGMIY
# Experimental: as §1, §2, §3
# SF3B1 1035 = target: T8, SF3B1 1035 (Homo sapiens, UniProt O75533+Q7RTV0)
# T8 construct: Cysteine engagement data from 22Rv1 cells treated; endogenous in cells; host or cells: 22Rv1
# T8 sequence (O75533 whole entry): as the sequence (O75533 whole entry) above
# T8 sequence (Q7RTV0 whole entry): as the sequence (Q7RTV0 whole entry) above
# T8 sequence (Q15393 whole entry partner): as the sequence (Q15393 whole entry partner) above
# T8 sequence (Q9BWJ5 whole entry partner): as the sequence (Q9BWJ5 whole entry partner) above
# Experimental: as §1, §2, §3
# SF3B1 1123 = target: T9, SF3B1 1123 (Homo sapiens, UniProt O75533+Q7RTV0)
# T9 construct: Cysteine engagement data from 22Rv1 cells treated; endogenous in cells; host or cells: 22Rv1
# T9 sequence (O75533 whole entry): as the sequence (O75533 whole entry) above
# T9 sequence (Q7RTV0 whole entry): as the sequence (Q7RTV0 whole entry) above
# T9 sequence (Q15393 whole entry partner): as the sequence (Q15393 whole entry partner) above
# T9 sequence (Q9BWJ5 whole entry partner): as the sequence (Q9BWJ5 whole entry partner) above
# Experimental: as §1, §2, §3
# T1 sequence (Q06323 whole entry): as the sequence (Q06323 whole entry) above
"percent engagement relative to DMSO, PSME1 101 (PSME1 101; 5 uM) [%]","percent engagement relative to DMSO, PSME1 101 (PSME1 101; 20 uM) [%]","percent engagement relative to DMSO, SF3B1 965 (SF3B1 965; 5 uM) [%]","percent engagement relative to DMSO, SF3B1 965 (SF3B1 965; 20 uM) [%]","percent engagement relative to DMSO, SF3B1 933 (SF3B1 933; 5 uM) [%]","percent engagement relative to DMSO, SF3B1 933 (SF3B1 933; 20 uM) [%]","percent engagement relative to DMSO, SF3B1 796 (SF3B1 796; 5 uM) [%]","percent engagement relative to DMSO, SF3B1 796 (SF3B1 796; 20 uM) [%]","percent engagement relative to DMSO, SF3B1 795 (SF3B1 795; 5 uM) [%]","percent engagement relative to DMSO, SF3B1 795 (SF3B1 795; 20 uM) [%]","percent engagement relative to DMSO, SF3B1 1244 (SF3B1 1244; 5 uM) [%]","percent engagement relative to DMSO, SF3B1 1244 (SF3B1 1244; 20 uM) [%]","percent engagement relative to DMSO, PSME1 106 (PSME1 106; 5 uM) [%]","percent engagement relative to DMSO, PSME1 106 (PSME1 106; 20 uM) [%]","percent engagement relative to DMSO, SF3B1 1035 (SF3B1 1035; 5 uM) [%]","percent engagement relative to DMSO, SF3B1 1035 (SF3B1 1035; 20 uM) [%]","percent engagement relative to DMSO, SF3B1 1123 (SF3B1 1123; 5 uM) [%]","percent engagement relative to DMSO, SF3B1 1123 (SF3B1 1123; 20 uM) [%]",Compound
−9.325,−5.635,1.985,13.895,6.345,2.595,6.755,7.34,5.715,3.145,−1.065,−1.615,−7.69,−20.355,1.53,8.13,1.425,21.84,"C=CC(=O)N1[C@@H](c2ccc3c(c2)OCO3)c2[nH]c3ccccc3c2C[C@@H]1C(=O)N1CCOCC1 [WX-02-43, 1-((1S,3R)-1-(benzo[d][1,3]dioxol-5-yl)-3-(morpholine-4-carbonyl)-1,3,4,9-tetrahydro-2H-pyrido [3,4-b]indol-2-yl)prop-2-en-1-one]"
−4.575,−14.73,−15.75,−8.665,−7.02,−4.95,−6.42,−5.075,−4.58,−5.905,−11.92,−12.54,−4.44,−17.66,−9.265,−6.03,5.965,21.005,"C=CC(=O)N1[C@H](c2ccc3c(c2)OCO3)c2[nH]c3ccccc3c2C[C@H]1C(=O)N1CCOCC1 [WX-02-23, 1-((1R,3S)-1-(benzo[d][1,3]dioxol-S-yl)-3-(morpholine-4-carbonyl)-1,3,4,9-tetrahydro-2H-pyrido [3,4-b]indol-2-yl)prop-2-en-1-one]"

# Source: patent US20250034216A1, “STEREOSELECTIVE COVALENT LIGANDS FOR ONCOGENIC AND IMMUNOLOGICAL PROTEINS” (The Scripps Research Institute, priority 2021, published 2025)
